Measurements reported in patent US7442693B2, “Diazepine compounds as ligands of the melanocortin 1 and/or 4 receptors” (SmithKline Beecham Corporation, priority 2004, dated 2008).

What was measured:
[1] = molecular target: T1, human MC1R (Homo sapiens, UniProt Q01726); assay: CHO-6xCRE-luc+ reporter gene assay, MC1R agonist activity; format: cell-based; details: for Emax: 4 h, read-out: % of MSH
T1 construct: expressed in transfected cells; host or cells: CHO-6xCRE-luc+ reporter cell line
Protocol: (§1) CHO-6×CRE-luc^+ reporter cell lines expressing human MC1R, MC3R, MC4R, and MC5R (GenBank accession numbers X65634, L06155, S77415 and U08353) and the CHO host reporter gene cell line were propagated in complete medium in T225 flasks. Forty-eight hours prior to assay, cells were harvested with 2 ml of 0.05% trypsin, washed with complete medium and plated at a concentration of 4000 cells/well in complete medium. Sixteen hours prior to the assay, the medium was removed from the cells and replaced with 90 μl/well of serum-free DMEM/F12. At the time of the assay the compounds were added in a 10 μl volume and plates were incubated for 4 h at 37° C. in a cell culture incubator. The medium was aspirated followed by the addition of 50 μl of a 1:1 mixture of LucLite™ and dPBS containing 1 mM CaCl2 and 1 mM MgCl2. The plates were then sealed and subjected to dark adaptation at room temperature for 10 min before luciferase activity was quantitated on a TopCount™ microplate scintillation counter (Packard) using 3 s/well count time. The NDP-αMSH and 154N-5 concentration-response curve data were expressed as a percentage of the fold stimulation in the NDP-αMSH control for each receptor subtype. The control value is the average of duplicate wells treated with 1×10^−7 M NDP-αMSH.

[2] = molecular target: T2, human MC4R (Homo sapiens, UniProt P32245); assay: CHO-6xCRE-luc+ reporter gene assay, MC4R agonist activity; format: cell-based; details: for Emax: 4 h, percentage of the fold stimulation in the NDP-αMSH control (1×10^−7 M), human MC4R, read-out: % Max MSH; for EC50: CHO-6xCRE-luc+ cells expressing human MC4R, 4 h at 37° C., luciferase activity
T2 construct: expressed in transfected cells; host or cells: CHO-6xCRE-luc+ reporter cell line
Protocol: as §1

[3] = percentage of the fold stimulation in the NDP-αMSH control (1×10^−7 M), human MC1R
[4] = CHO-6xCRE-luc+ cells expressing human MC1R, 4 h at 37° C., luciferase activity

T2 sequence (P32245 whole entry): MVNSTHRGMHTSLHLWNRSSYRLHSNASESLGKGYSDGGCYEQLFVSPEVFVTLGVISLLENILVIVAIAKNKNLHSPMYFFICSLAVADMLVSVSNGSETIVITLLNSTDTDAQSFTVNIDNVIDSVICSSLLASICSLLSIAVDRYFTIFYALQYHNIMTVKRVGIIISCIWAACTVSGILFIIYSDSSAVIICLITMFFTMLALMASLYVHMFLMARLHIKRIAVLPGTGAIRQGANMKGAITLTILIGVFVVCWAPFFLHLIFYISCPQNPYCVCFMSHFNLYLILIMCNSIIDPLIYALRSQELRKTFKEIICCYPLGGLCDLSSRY
T1 sequence (Q01726 whole entry): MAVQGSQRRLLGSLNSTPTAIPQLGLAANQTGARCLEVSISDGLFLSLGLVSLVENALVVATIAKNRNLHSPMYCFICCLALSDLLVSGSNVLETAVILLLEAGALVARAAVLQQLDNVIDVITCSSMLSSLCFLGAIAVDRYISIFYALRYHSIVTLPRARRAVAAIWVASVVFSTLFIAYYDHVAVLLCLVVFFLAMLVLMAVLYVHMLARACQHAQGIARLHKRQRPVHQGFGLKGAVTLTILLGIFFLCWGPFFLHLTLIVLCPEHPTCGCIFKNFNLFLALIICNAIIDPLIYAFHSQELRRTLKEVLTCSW

| SMILES | Emax [1, 3] [%] | EC50 [1, 4] [nM] | Emax [2] [%] | EC50 [2] [nM] | pEC50 [1, 4] | % of MSH [1, 3] [%] |
| --- | --- | --- | --- | --- | --- | --- |
| COc1ccc(N(C(=O)CN2C=CN(c3ccccc3)C(=O)C(Cc3n[nH]c4ccccc34)C2=O)C(C)C)cc1 (single isomer, unassigned) [Example 2] | 85 | 18.6 | 51 | 282 | – | – |
| O=C1C(Cc2n[nH]c3ccccc23)C(=O)N(c2ccccc2)C=CN1CC(=O)N1CCCCc2ccccc21 (single isomer, unassigned) [Example 18] | 87 | 1.58 | – | – | – | – |
| CC(C)N(C(=O)CN1C=CN(c2ccccc2)C(=O)C(Cc2n[nH]c3cc(F)ccc23)C1=O)c1ccccc1 (single isomer, unassigned) [Example 21] | 79 | 35.5 | – | – | – | – |
| O=C1C(Cc2n[nH]c3ccccc23)C(=O)N(c2ccccc2)C=CN1CC(=O)N1CCCCc2ccccc21 (single isomer, unassigned) [Example 24] | – | – | – | – | 8.80 | 86 |
| COc1ccc(N(C(=O)CN2C=CN(c3ccccc3)C(=O)C(Cc3n[nH]c4ccccc34)C2=O)C(C)C)cc1 (stereo not shown) [Example 1] | 68 | 29.5 | 56 | 417 | – | – |
| CC(C)N(C(=O)CN1C=CN(c2ccccc2)C(=O)C(Cc2n[nH]c3ccccc23)C1=O)c1ccc(Cl)cc1 (stereo not shown) [Example 3] | 73 | 112 | 58 | 42.7 | – | – |
| Cc1cc(OC(F)(F)F)ccc1N(C(=O)CN1C=CN(c2ccccc2)C(=O)C(Cc2n[nH]c3ccccc23)C1=O)C(C)C (stereo not shown) [Example 4] | 74 | 70.8 | 52 | 44.7 | – | – |
| COC1(Cc2n[nH]c3ccccc23)C(=O)N(CC(=O)N(c2ccc(F)cc2)C(C)C)C=CN(c2ccccc2)C1=O (stereo not shown) [Example 5, 2-[2,4-dioxo-3-(1H-indazol-3-ylmethylene)-3-methoxy-5-phenyl-2,3,4,5-tetrahydro-1H-1,5-diazepin-1-yl]-N-(4-fluorophenyl) N-isopropylacetamide] | – | – | 78 | 151 | – | – |
| CC(C)N(C(=O)CN1C=CN(c2ccccc2)C(=O)C(Cc2n[nH]c3ccccc23)C1=O)c1ccc(OC(F)(F)F)cc1 (stereo not shown) [Example 6] | 91 | 22.4 | 51 | 204 | – | – |
| COc1cccc2c1CCCCN2C(=O)CN1C=CN(c2ccccc2)C(=O)C(Cc2n[nH]c3ccccc23)C1=O (stereo not shown) [Example 7] | 50 | 40.7 | 77 | 347 | – | – |
| CCc1ccc(N(C(=O)CN2C=CN(c3ccccc3)C(=O)C(Cc3n[nH]c4ccccc34)C2=O)C(C)C)cc1 (stereo not shown) [Example 8] | 72 | 148 | 53 | 347 | – | – |
| CCCc1ccc(N(C(=O)CN2C=CN(c3ccccc3)C(=O)C(Cc3n[nH]c4ccccc34)C2=O)C(C)C)cc1 (stereo not shown) [Example 9] | 37 | 200 | 65 | 389 | – | – |
| CC(C)N(C(=O)CN1C=CN(c2ccccc2)C(=O)C(Cc2n[nH]c3ccccc23)C1=O)c1ccc(I)cc1 (stereo not shown) [Example 10] | 84 | 72.4 | 49 | 398 | – | – |
| CC(C)N(C(=O)CN1C=CN(c2ccccc2)C(=O)C(Cc2n[nH]c3ccccc23)C1=O)c1ccc(C(F)(F)F)cc1 (stereo not shown) [Example 11] | 68 | 145 | 55 | 417 | – | – |
| COc1ccc(N(C(=O)CN2C=CN(c3ccccc3)C(=O)C(Cn3c(=O)[nH]c4ccccc43)C2=O)C(C)C)cc1 (stereo not shown) [Example 12] | 61 | 19.5 | 56 | 437 | – | – |
| CCOc1ccc(N(C(=O)CN2C=CN(c3ccccc3)C(=O)C(Cc3n[nH]c4ccccc34)C2=O)C(C)C)cc1 (stereo not shown) [Example 13] | 64 | 110 | 65 | 513 | – | – |

| SMILES | Emax [1, 3] [%] | EC50 [1, 4] [nM] | Emax [2] [%] | EC50 [2] [nM] | pEC50 [1, 4] | % of MSH [1, 3] [%] |
| --- | --- | --- | --- | --- | --- | --- |
| Cc1ccc(N(C(=O)CN2C=CN(c3ccccc3)C(=O)C(Cc3n[nH]c4ccccc34)C2=O)C(C)C)cc1 (stereo not shown) [Example 14] | 69 | 269 | – | – | – | – |
| O=C1C(Cc2n[nH]c3cc(F)ccc23)C(=O)N(c2ccccc2)C=CN1CC(=O)N1CCCCc2ccccc21 (stereo not shown) [Example 15] | 61 | 1.58 | – | – | – | – |
| O=C1C(Cc2n[nH]c3ccccc23)C(=O)N(c2ccccc2)C=CN1CC(=O)N1CCCCc2ccccc21 (stereo not shown) [Example 16] | 61 | 1.58 | – | – | – | – |
| COc1ccc(N(C(=O)CN2C=CN(c3ccccc3)C(=O)C(Cc3n[nH]c4cc(F)ccc34)C2=O)C(C)C)cc1 (stereo not shown) [Example 17] | 83 | 1.58 | – | – | – | – |
| CC(C)N(C(=O)CN1C=CN(c2ccccc2)C(=O)C(Cc2n[nH]c3cc(F)ccc23)C1=O)c1ccc(F)cc1 (stereo not shown) [Example 19] | 53 | 14.1 | – | – | – | – |
| CC(C)N(C(=O)CN1C=CN(c2ccccc2)C(=O)C(Cc2n[nH]c3cc(F)ccc23)C1=O)c1ccccc1 (stereo not shown) [Example 20] | 51 | 191 | – | – | – | – |
| CC(C)N(C(=O)CN1C=CN(c2ccccc2)C(=O)C(Cc2n[nH]c3ccccc23)C1=O)c1ccc(F)cc1 (stereo not shown) [Example 22] | 54 | 50.1 | – | – | – | – |
| CCCN(C(=O)CN1C=CN(c2ccccc2)C(=O)C(Cc2n[nH]c3ccccc23)C1=O)c1ccc(OC)cc1 (stereo not shown) [Example 23] | 72 | 51.3 | – | – | – | – |
| CCN(C(=O)CN1C=CN(c2ccccc2)C(=O)C(Cc2n[nH]c3ccccc23)C1=O)c1ccc(OC)cc1 (stereo not shown) [Example 25] | 72 | 64.6 | – | – | – | – |
| CC(C)Oc1ccc(N(C(=O)CN2C=CN(c3ccccc3)C(=O)C(Cc3n[nH]c4ccccc34)C2=O)C(C)C)cc1 (stereo not shown) [Example 26] | 41 | 74.1 | – | – | – | – |
| COc1ccc(N(C(=O)CN2C=CN(c3ccccc3)C(=O)C(Cc3n[nH]c4c3CCCC4)C2=O)C(C)C)cc1 (stereo not shown) [Example 27] | 95 | 129 | – | – | – | – |
| CC(C)N(C(=O)CN1C=CN(c2ccccc2)C(=O)C(Cc2n[nH]c3ccccc23)C1=O)c1ccc(O)cc1 (stereo not shown) [Example 28] | 79 | 158 | – | – | – | – |
| COc1ccc(N(C(=O)CN2C=CN(c3ccccc3)C(=O)C(Cn3cnc4ccccc43)C2=O)C(C)C)cc1 (stereo not shown) [Example 29] | 103 | 182 | – | – | – | – |
| CC1CCc2ccccc2N1C(=O)CN1C=CN(c2ccccc2)C(=O)C(Cc2n[nH]c3ccccc23)C1=O (stereo not shown) [Example 30] | 69 | 204 | – | – | – | – |
| CC(C)c1ccc(N(C(=O)CN2C=CN(c3ccccc3)C(=O)C(Cc3n[nH]c4ccccc34)C2=O)C(C)C)cc1 (stereo not shown) [Example 31] | 40 | 224 | – | – | – | – |
| CC(C)N(C(=O)CN1C=CN(c2ccccc2)C(=O)C(Cc2n[nH]c3ccccc23)C1=O)c1ccccc1 (stereo not shown) [Example 32] | 54 | 295 | – | – | – | – |
